# Data published in patent US10112943B2, “Substituted imidazoles as gamma secretase modulators” (Janssen Pharmaceutica NV, priority 2012, dated 2018).
# System: Aβ38
# Assay: In vivo efficacy: brain levels of soluble Aβ38 in non-transgenic rodents (MSD electrochemiluminescence)
# Set-up: species or system mouse
# Settings: dose 30 mg/kg oral dosing, soluble fraction, untreated animals (Ctrl) set at 100, typical protocol 4 h after dose
# Excerpt: To determine whether acute administration of an Aβ38 increasing agents would increase Aβ38 levels in vivo, non-transgenic rodents, e.g. mice or rats were used. Animals treated with the Aβ38 increasing agents were examined and compared to those untreated or treated with vehicle and brain levels of soluble Aβ42, Aβ40, Aβ38, and Aβ37 were quantitated by MSD electrochemiluminescence detection technology. Treatment periods varied from hours (h) to days and were adjusted based on the results of the Aβ38 increase once a time course of onset of effect could be established.
# A typical protocol for measuring Aβ38 increase in vivo is shown but it is only one of many variations that could be used to optimize the levels of detectable Aβ. […] After 4 h, the animals were sacrificed and Aβ38 levels were analysed.
# Blood was collected by decapitation and exsanguinations in EDTA-treated collection tubes. […] The left hemisphere was stored at −18° C. for quantitative analysis of test compound levels. […]
# Mouse brains from non-transgenic animals were resuspended in 8 volumes of 0.4% DEA (diethylamine)/50 mM NaCl containing protease inhibitors (Roche-11873580001 or 04693159001) per gram of tissue, e.g. for 0.158 g brain, add 1.264 ml of 0.4% DEA. […] Nine parts of supernatant were neutralized with 1 part 0.5 M Tris-HCl pH 6.8 and used to quantify Aβ. […]
smiles,measurement,value
"Cc1cn(-c2ccc3n(c2=O)C[C@@H]2CC[C@@H](Cc4cc(C(F)(F)F)cc(C(F)(F)F)c4)N2C3=O)cn1 (single isomer, unassigned) [Compound 4, 3-[[3,5-bis(trifluoromethyl)phenyl]methyl]-2,3,11,11a-tetrahydro-8-(4-methyl-1H-imidazol-1-yl)-1H-pyrido[1,2-a]pyrrolo[1,2-d]pyrazine-5,9-dione ((3S, 11aS) or (3R, 11aR))]",Aβ38 (% vs Ctrl) _Mean,136 % vs Ctrl
